The assay deals with T1, human GnRH receptor (Homo sapiens, UniProt P30968).
T1 construct: expressed in transfected cells; host or cells: HEK 293 (hGnRH-R/293, from Dr. Stuart Sealfon)
T1 sequence (P30968 1-328): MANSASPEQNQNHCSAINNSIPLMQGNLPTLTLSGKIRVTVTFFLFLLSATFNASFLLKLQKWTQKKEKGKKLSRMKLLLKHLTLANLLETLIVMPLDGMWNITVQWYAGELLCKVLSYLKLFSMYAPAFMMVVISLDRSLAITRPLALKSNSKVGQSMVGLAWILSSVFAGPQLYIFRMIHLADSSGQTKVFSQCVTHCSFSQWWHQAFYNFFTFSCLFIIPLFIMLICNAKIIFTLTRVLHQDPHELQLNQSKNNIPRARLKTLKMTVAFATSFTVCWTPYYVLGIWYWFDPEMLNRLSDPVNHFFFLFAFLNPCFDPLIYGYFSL
Briefly: Radioligand binding, 125I-GnRH-A displacement, membranes of HEK 293 cells with human GnRH receptor. To be noted: for remaining activity at 1 µM: substrate remaining, 1 uM compound, closer to zero = closer to 100% inhibition, read-out: S%R 1 uM hGnRHR. A digest of the protocol: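 Bound tracer was separated by filtration through polyethyleneimine-soaked GF/C filters and counted by liquid scintillation. IC50 from curve fitting; other species were tested under the same conditions.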

[1] abbreviates: 1 uM, read-out: % Inhib. @ 1 uM hGnRH.
Where [2] appears, read: 1 h, repeat of % Inhib. at 1 uM, read-out: Repeats @ 1 uM hGnRH.

SMILES strings stand for the structures. Read-outs that look alike come from different tables or passages of the source.

For the compound `Cc1cc2c(cc1Cc1ccc(C(=O)NCCCN3CCCC3=O)o1)C(C)(C)CCC2(C)C` [Compound 424], where the note is “1 h”, the remaining activity at 1 µM is 31%.

With `Cc1cc2c(cc1Cc1ccc(C(=O)NCc3ccc(Cl)cc3Cl)o1)C(C)(C)CCC2(C)C` [Compound 425], the remaining activity at 1 µM (1 h) was 42%.

As to `Cc1cc2c(cc1Cc1ccc(C(=O)NCc3ccc(F)cc3)o1)C(C)(C)CCC2(C)C` [Compound 426], the remaining activity at 1 µM (1 h) is 30%.

As to `Cc1cc2c(cc1Cc1ccc(C(=O)NCc3cccc(Cl)c3)o1)C(C)(C)CCC2(C)C` [Compound 427], the remaining activity at 1 µM (1 h) stood at 20%.

Turning to `Cc1cc2c(cc1Cc1ccc(C(=O)NC(C)c3ccccc3)o1)C(C)(C)CCC2(C)C` (stereo not drawn) [Compound 428], the remaining activity at 1 µM (1 h) was 46%.

For the compound `COc1cccc(CCNC(=O)c2ccc(Cc3cc4c(cc3C)C(C)(C)CCC4(C)C)o2)c1OC` [Compound 429], for the setting “1 h”, the remaining activity at 1 µM came out at 40%.

Consider `COc1cc(CCNC(=O)c2ccc(Cc3cc4c(cc3C)C(C)(C)CCC4(C)C)o2)cc(OC)c1` [Compound 430], for which the remaining activity at 1 µM (1 h) turned out to be 55%.

Turning to `Cc1cc2c(cc1Cc1ccc(C(=O)NC3CC3)o1)C(C)(C)CCC2(C)C` [Compound 431], the remaining activity at 1 µM (1 h) came out at 47%.

For `COCCNC(=O)c1ccc(Cc2cc3c(cc2C)C(C)(C)CCC3(C)C)o1` [Compound 432], under “1 h”, the remaining activity at 1 µM came to 42%.

Take `COc1ccc(CCNC(=O)c2ccc(Cc3cc4c(cc3C)C(C)(C)CCC4(C)C)o2)cc1` [Compound 433]: the remaining activity at 1 µM (1 h) is 54%.

For `Cc1cccc(CNC(=O)c2ccc(Cc3cc4c(cc3C)C(C)(C)CCC4(C)C)o2)c1` [Compound 434], the remaining activity at 1 µM (1 h) was determined as 6%.

Consider `Cc1ccc(CNC(=O)c2ccc(Cc3cc4c(cc3C)C(C)(C)CCC4(C)C)o2)cc1` [Compound 435], for which the remaining activity at 1 µM (1 h) turned out to be 12%.

With `Cc1cc2c(cc1Cc1ccc(C(=O)NCCC#N)o1)C(C)(C)CCC2(C)C` [Compound 436], the remaining activity at 1 µM (1 h) stood at 58%.

As to `Cc1cc2c(cc1Cc1ccc(C(=O)NCCc3cccc(F)c3)o1)C(C)(C)CCC2(C)C` [Compound 437], where the note is “1 h”, the remaining activity at 1 µM was determined as 40%.

Turning to `Cc1cc2c(cc1Cc1ccc(C(=O)NCCOc3ccccc3)o1)C(C)(C)CCC2(C)C` [Compound 438], the remaining activity at 1 µM (1 h) amounted to 7%.

`COc1cccc(CNC(=O)c2ccc(Cc3cc4c(cc3C)C(C)(C)CCC4(C)C)o2)c1` [Compound 439]: the remaining activity at 1 µM (1 h) was 23%.

With `Cc1ccc(CNC(=O)c2ccc(Cc3cc4c(cc3C)C(C)(C)CCC4(C)C)o2)cc1C` [Compound 440], where the note is “1 h”, the remaining activity at 1 µM came out at 22%.

With `Cc1cc2c(cc1Cc1ccc(C(=O)NCc3cccc(C)c3C)o1)C(C)(C)CCC2(C)C` [Compound 441], the remaining activity at 1 µM (1 h) is 17%.

For `Cc1ccc(CCNC(=O)c2ccc(Cc3cc4c(cc3C)C(C)(C)CCC4(C)C)o2)cc1` [Compound 442], for the setting “1 h”, the remaining activity at 1 µM was determined as 50%.

Take `Cc1cc2c(cc1Cc1ccc(C(=O)NCc3cccc(F)c3)o1)C(C)(C)CCC2(C)C` [Compound 443]: the remaining activity at 1 µM (1 h) is 19%.

In the case of `Cc1cc2c(cc1Cc1ccc(C(=O)NCC(O)c3ccccc3)o1)C(C)(C)CCC2(C)C` (stereo not drawn) [Compound 444], the remaining activity at 1 µM (1 h) stood at 32%.

In the case of `Cc1cc2c(cc1Cc1ccc(C(=O)NCc3ccc(F)cc3F)o1)C(C)(C)CCC2(C)C` [Compound 445], the remaining activity at 1 µM (1 h) was determined as 22%.

Consider `Cc1cc2c(cc1Cc1ccc(C(=O)NCCc3ccc(F)cc3)o1)C(C)(C)CCC2(C)C` [Compound 446], for which, under “1 h”, the remaining activity at 1 µM came to 55%.

Regarding `Cc1cc2c(cc1Cc1ccc(C(=O)NCc3ccc(N(C)C)cc3)o1)C(C)(C)CCC2(C)C` [Compound 447], the remaining activity at 1 µM (1 h) was 18%.

Turning to `COc1cc(CNC(=O)c2ccc(Cc3cc4c(cc3C)C(C)(C)CCC4(C)C)o2)ccc1O` [Compound 448], the remaining activity at 1 µM (1 h) is 46%.

For the compound `Cc1cc2c(cc1Cc1ccc(C(=O)NCc3ccccc3Br)o1)C(C)(C)CCC2(C)C` [Compound 449], the remaining activity at 1 µM (1 h) is 42%.

`COc1ccc(CNC(=O)c2ccc(Cc3cc4c(cc3C)C(C)(C)CCC4(C)C)o2)c(OC)c1` [Compound 450]: the remaining activity at 1 µM (1 h) amounted to 6%.

As to `Cc1cc2c(cc1Cc1ccc(C(=O)NCc3cccc([N+](=O)[O-])c3)o1)C(C)(C)CCC2(C)C` [Compound 451], the remaining activity at 1 µM (1 h) came out at 24%.

Turning to `Cc1cc2c(cc1Cc1ccc(C(=O)NC(C#N)c3ccccc3)o1)C(C)(C)CCC2(C)C` (stereo not drawn) [Compound 452], the remaining activity at 1 µM (1 h) is 55%.

Regarding `Cc1cc2c(cc1Cc1ccc(C(=O)NCc3ccc(Br)cc3)o1)C(C)(C)CCC2(C)C` [Compound 453], under “1 h”, the remaining activity at 1 µM is 50%.

`Cc1cc2c(cc1Cc1ccc(C(=O)NCc3cccc(Br)c3)o1)C(C)(C)CCC2(C)C` [Compound 454]: the remaining activity at 1 µM (1 h) turned out to be 36%.

As for `Cc1cc2c(cc1Cc1ccc(C(=O)NC(C)c3ccc([N+](=O)[O-])cc3)o1)C(C)(C)CCC2(C)C` (stereo not drawn) [Compound 455], under “1 h”, the remaining activity at 1 µM came to 58%.

`Cc1cc2c(cc1Cc1ccc(C(=O)NCCC3CCCN3C)o1)C(C)(C)CCC2(C)C` (stereo not drawn) [drawing 977]: the inhibition at 1 µM by setting is: under setting [1], 40%; under setting [2], 49%.

Regarding `Cc1cc2c(cc1Cc1ccc(C(=O)NCCCN3CCOCC3)o1)C(C)(C)CCC2(C)C` [drawing 978], the inhibition at 1 µM is, setting by setting: under setting [1], 57%; under setting [2], 58%.

For the compound `Cc1cc2c(cc1Cc1ccc(C(=O)NCCCN3CCN(C)CC3)o1)C(C)(C)CCC2(C)C` [drawing 980], the inhibition at 1 µM amounted to 26% under setting [1] and 26% under setting [2].

Take `Cc1cc2c(cc1Cc1ccc(C(=O)NCC3CCNCC3)o1)C(C)(C)CCC2(C)C` [drawing 981]: the inhibition at 1 µM runs as follows: under setting [1], 20%; under setting [2], 24%.

Consider `Cc1cc2c(cc1Cc1ccc(C(=O)NCCN3CCCCC3)o1)C(C)(C)CCC2(C)C` [drawing 982], for which the inhibition at 1 µM came out at 15% under setting [1] and 15% under setting [2].

Turning to `Cc1cc2c(cc1Cc1ccc(C(=O)NCCCN3CCCCC3C)o1)C(C)(C)CCC2(C)C` (stereo not drawn) [drawing 983], the inhibition at 1 µM by setting is: under setting [1], 27%; under setting [2], 31%.

As to `Cc1cc2c(cc1Cc1ccc(C(=O)NCc3ccccn3)o1)C(C)(C)CCC2(C)C` [drawing 984], the inhibition at 1 µM runs as follows: under setting [1], 62%; under setting [2], 67%.

`Cc1cc2c(cc1Cc1ccc(C(=O)NCCc3ccccn3)o1)C(C)(C)CCC2(C)C` [drawing 985]: the inhibition at 1 µM reads like this: under setting [1], 50%; under setting [2], 62%.

As to `Cc1cc2c(cc1Cc1ccc(C(=O)NCCN3CCCC3)o1)C(C)(C)CCC2(C)C` [drawing 986], the inhibition at 1 µM is -7% under setting [1] and 0% under setting [2].

Regarding `Cc1cc2c(cc1Cc1ccc(C(=O)NCCN3CCOCC3)o1)C(C)(C)CCC2(C)C` [drawing 987], the inhibition at 1 µM reads like this: under setting [1], 63%; under setting [2], 69%.

For `Cc1cc2c(cc1Cc1ccc(C(=O)NCCc3ccc(S(N)(=O)=O)cc3)o1)C(C)(C)CCC2(C)C` [drawing 989], the inhibition at 1 µM was 38% under setting [1] and 41% under setting [2].

In the case of `Cc1cc2c(cc1Cc1ccc(C(=O)NCCCc3ccccc3)o1)C(C)(C)CCC2(C)C` [drawing 990], the inhibition at 1 µM came out at 86% under setting [1] and 90% under setting [2].

On to `CC(=O)NCCNC(=O)c1ccc(Cc2cc3c(cc2C)C(C)(C)CCC3(C)C)o1` [drawing 991], for which the inhibition at 1 µM runs as follows: under setting [1], 52%; under setting [2], 54%.

Turning to `Cc1cc2c(cc1Cc1ccc(C(=O)NCc3ccc4c(c3)OCO4)o1)C(C)(C)CCC2(C)C` [drawing 992], the inhibition at 1 µM is 75% under setting [1] and 92% under setting [2].

Take `COc1ccc(CCNC(=O)c2ccc(Cc3cc4c(cc3C)C(C)(C)CCC4(C)C)o2)cc1OC` [drawing 993]: the inhibition at 1 µM reads like this: under setting [1], 47%; under setting [2], 52%.

As to `COc1cccc(CCNC(=O)c2ccc(Cc3cc4c(cc3C)C(C)(C)CCC4(C)C)o2)c1` [drawing 994], the inhibition at 1 µM is 49% under setting [1] and 50% under setting [2].

Turning to `COc1cc(CNC(=O)c2ccc(Cc3cc4c(cc3C)C(C)(C)CCC4(C)C)o2)cc(OC)c1OC` [drawing 995], the inhibition at 1 µM reads like this: under setting [1], 60%; under setting [2], 62%.

`COc1ccc(OC)c(CCNC(=O)c2ccc(Cc3cc4c(cc3C)C(C)(C)CCC4(C)C)o2)c1` [drawing 996]: the inhibition at 1 µM is, setting by setting: under setting [1], 23%; under setting [2], 36%.

For `Cc1cc2c(cc1Cc1ccc(C(=O)NCc3ccccc3C(F)(F)F)o1)C(C)(C)CCC2(C)C` [drawing 997], the inhibition at 1 µM is 11% under setting [1] and 6% under setting [2].

Turning to `Cc1cc2c(cc1Cc1ccc(C(=O)NCCc3ccc(Cl)cc3Cl)o1)C(C)(C)CCC2(C)C` [drawing 998], the inhibition at 1 µM under setting [1] turned out to be 16% and the inhibition at 1 µM under setting [2] was determined as 23%.

For `Cc1cc2c(cc1Cc1ccc(C(=O)NCCCN(C)c3ccccc3)o1)C(C)(C)CCC2(C)C` [drawing 1000], the inhibition at 1 µM by setting is: under setting [1], 67%; under setting [2], 70%.

With `Cc1cc2c(cc1Cc1ccc(C(=O)Nc3ccc4[nH]c(-c5ccccn5)nc4c3)o1)C(C)(C)CCC2(C)C` [drawing 1002], the inhibition at 1 µM reads like this: under setting [1], 13%; under setting [2], 8%.

In the case of `Cc1cc2c(cc1Cc1ccc(C(=O)NCCCN(C)CCCN)o1)C(C)(C)CCC2(C)C` [drawing 1005], the inhibition at 1 µM was found to be 13% under setting [1] and 33% under setting [2].
